From patent US20240300980A1, “HETEROCYCLIC COMPOUNDS AS KRAS INHIBITOR, AND PREPARATION THEREFOR AND USE THEREOF IN TREATMENT” (SHANGHAI KECHOW PHARMA, INC., priority 2021, published 2024) come the findings set out here.

pIC50: −log10 of the molar value.

One assay concerns AGS cells (KRAS^G12D). As to the kind of experiment: Detection of cell proliferation in vitro by MTT/MTS method (cell activity experiment). Type of assay: cell-based. Conditions: AGS cells; MTT/MTS; 3 days of drug treatment; read-out: AGS IC50. The gist of the method: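 After 3-day compound exposure (final DMSO 0.5%), viability of AGS (KRAS G12D) cells, plated 1000/well one day before dosing, was measured at 490 nm following 4 h MTT or MTS incubation. IC50 was fitted from dose–effect curves relative to DMSO-treated wells.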
(Tetrazolium assays rely on reduction of a dye to a coloured formazan, in cell work by metabolically active cells.)
Regarding `C#Cc1c(F)ccc2cc(O)cc(-c3ccc4c(N5CCC(N)C5)nc(OC[C@@]56CCCN5C[C@H](F)C6)nc4c3F)c12` (stereo partly drawn) [Example 116, 4-(4-(3-aminopyrrolidin-1-yl)-8-fluoro-2-(((2R, 7aS)-2-fluorotetrahydro-1H-pyrrolizin-7a(5H)-yl)methoxy)quinazolin-7-yl)-5-ethynyl-6-fluoronaphthalen-2-ol], the negative-log IC50 (pIC50) (as a rule, −log10 of the IC50, conventionally taken in molar units) is less than 5.60.
On the same count and under the same terms, then `C#Cc1c(F)ccc2cc(O)cc(-c3ccc4c(N5C[C@H]6CC[C@@H](C5)[C@@H]6O)nc(OC[C@@]56CCCN5C[C@H](F)C6)nc4c3F)c12` [Example 118, (1R,5S,8R)-3-(7-(8-ethynyl-7-fluoro-3-hydroxynaphthalen-1-yl)-8-fluoro-2-(((2R,7aS)-2-fluorotetrahydro-1H-pyrrolizin-7a(5H)-yl)methoxy)quinazolin-4-yl)-3-azabicyclo [3.2.1]octan-8-ol], with less than 5.60.

The same assay, now with this note: Homo sapiens, AGS, 72 h, AGS cells; MTT/MTS; 3 days of drug treatment; read-out: AGS IC50.
For the compound `CCc1cccc2cc(O)cc(-c3ccc4c(N5C[C@H]6CC[C@@H](C5)N6)nc(OCC5(CN6CCCC6)CC5)nc4c3F)c12` [Example 104, 4-(4-((1R,5S)-3,8-diazabicyclo[3.2.1]octan-3-yl)-8-fluoro-2-((1-(pyrrolidin-1-ylmethyl)cyclopropyl)methoxy)quinazolin-7-yl)-5-ethylnaphthalen-2-ol], the pIC50 is 7.24.
Regarding `C#Cc1c(F)ccc2cc(O)cc(-c3ccc4c(N5CC6CCCC(C5)N6)nc(OC[C@@]56CCCN5C[C@H](F)C6)nc4c3F)c12` [Example 105, 4-(4-(3,9-diazabicyclo [3.3.1]nonan-3-yl)-8-fluoro-2-(((2R,7aS)-2-fluorotetrahydro-1H-pyrrolizin-7a(5H)-yl)methoxy)quinazolin-7-yl)-5-ethynyl-6-fluoronaphthalen-2-ol], the pIC50 is 7.10.
Same read-out and setting: then `C#Cc1cccc2cc(O)cc(-c3ccc4c(N5CC6CCCC(C5)N6)nc(OC[C@@]56CCCN5C[C@H](F)C6)nc4c3F)c12` [Example 106, 4-(4-(3,9-diazabicyclo [3.3.1]nonan-3-yl)-8-fluoro-2-(((2R,7aS)-2-fluorotetrahydro-1H-pyrrolizin-7a(5H)-yl)methoxy)quinazolin-7-yl)-5-ethynylnaphthalen-2-ol], with 6.92; and `C#Cc1c(F)ccc2cc(O)cc(-c3ccc4c(N5CC6CC(C5)N6)nc(OC[C@@]56CCCN5C[C@H](F)C6)nc4c3F)c12` [Example 107, 4-(4-(3,6-diazabicyclo [3.1.1]heptan-3-yl)-8-fluoro-2-(((2R,7aS)-2-fluorotetrahydro-1H-pyrrolizin-7a(5H)-yl)methoxy)quinazolin-7-yl)-5-ethynyl-6-fluoronaphthalen-2-ol], with 6.98.
Same read-out and setting: then `C#Cc1c(F)ccc2cc(O)cc(-c3ccc4c(N5CC6CCC5CN6)nc(OC[C@@]56CCCN5C[C@H](F)C6)nc4c3F)c12` (stereo partly drawn) [Example 108, 4-(4-(2,5-diazabicyclo [2.2.2]octan-2-yl)-8-fluoro-2-(((2R,7aS)-2-fluorotetrahydro-1H-pyrrolizin-7a(5H)-yl)methoxy)quinazolin-7-yl)-5-ethynyl-6-fluoronaphthalen-2-ol], with 7.39.
Same read-out and setting: then `C#Cc1c(F)ccc2cc(O)cc(-c3ccc4c(N5CCC6(CCCS6)CC5)nc(OC[C@@]56CCCN5C[C@H](F)C6)nc4c3F)c12` [Example 109, 5-ethynyl-6-fluoro-4-(8-fluoro-2-(((2R,7aS)-2-fluorotetrahydro-1H-pyrrolizin-7a(5H)-yl)methoxy)-4-(1-thia-8-azaspiro[4.5]decan-8-yl)quinazolin-7-yl)naphthalen-2-ol], with less than 5.60.
For `C#Cc1c(F)ccc2cc(O)cc(-c3ccc4c(N5CCC6(CCCS6(=O)=O)CC5)nc(OC[C@@]56CCCN5C[C@H](F)C6)nc4c3F)c12` [Example 110, 8-(7-(8-ethynyl-7-fluoro-3-hydroxynaphthalen-1-yl)-8-fluoro-2-(((2R, 7aS)-2-fluorotetrahydro-1H-pyrrolizin-7a(5H)-yl)methoxy)quinazolin-4-yl)-1-thia-8-azaspiro [4.5]decane 1,1-dioxide], the pIC50 is less than 5.60.
Consider `C#Cc1c(F)ccc2cc(O)cc(-c3ccc4c(N5CCC(N)C5)nc(OC[C@@]56CCCN5C[C@H](F)C6)nc4c3F)c12` (stereo partly drawn) [Example 111, 4-(4-(3-aminopyrrolidin-1-yl)-8-fluoro-2-(((2R,7aS)-2-fluorotetrahydro-1H-pyrrolizin-7a(5H)-yl)methoxy)quinazolin-7-yl)-5-ethynyl-6-fluoronaphthalen-2-ol], for which the negative logarithm of the IC50 (pIC50) is less than 5.60.
Same read-out and setting: in the case of `C#Cc1c(F)ccc2cc(O)cc(-c3ccc4c(N5CC6CCCNC6C5)nc(OC[C@@]56CCCN5C[C@H](F)C6)nc4c3F)c12` (stereo partly drawn) [Example 112, 5-ethynyl-6-fluoro-4-(8-fluoro-2-(((2R,7aS)-2-fluorotetrahydro-1H-pyrrolizin-7a(5H)-yl)methoxy)-4-(octahydro-6H-pyrrolo[3,4-b]pyridin-6-yl)quinazolin-7-yl) naphthalen-2-ol] it was less than 5.60.
As to `C#Cc1c(F)ccc2cc(O)cc(-c3ccc4c(N5CC6CCNC6C5)nc(OC[C@@]56CCCN5C[C@H](F)C6)nc4c3F)c12` (stereo partly drawn) [Example 113, 5-ethynyl-6-fluoro-4-(8-fluoro-2-(((2R,7aS)-2-fluorotetrahydro-1H-pyrrolizin-7a(5H)-yl)methoxy)-4-(hexahydropyrrolo[3,4-b]pyrrol-5(1H)-yl)quinazolin-7-yl) naphthalen-2-ol], the pIC50 is less than 5.60.
Same read-out and setting: then `C#Cc1c(F)ccc2cc(O)cc(-c3ccc4c(N5CCC6(CC5)CO[C@@H](C)[C@H]6N)nc(OC[C@@]56CCCN5C[C@H](F)C6)nc4c3F)c12` [Example 114, 4-(4-((3S,4S)-4-amino-3-methyl-2-oxa-8-azaspiro[4.5]decan-8-yl)-8-fluoro-2-(((2R, 7aS)-2-fluorotetrahydro-1H-pyrrolizin-7a(5H)-yl)methoxy)quinazolin-7-yl)-5-ethynyl-6-fluoronaphthalen-2-ol], with less than 5.60; and `C#Cc1cccc2cc(O)cc(-c3ccc4c(N5CCC6(CC5)CO[C@@H](C)[C@H]6N)nc(OC[C@@]56CCCN5C[C@H](F)C6)nc4c3F)c12` [Example 115, 4-(4-((3S,4S)-4-amino-3-methyl-2-oxa-8-azaspiro[4.5]decan-8-yl)-8-fluoro-2-(((2R, 7aS)-2-fluorotetrahydro-1H-pyrrolizin-7a(5H)-yl)methoxy)quinazolin-7-yl)-5-ethynylnaphthalen-2-ol], with less than 5.60; and `C#Cc1c(F)ccc2cc(O)cc(-c3ccc4c(N5CCC(NS(C)(=O)=O)C5)nc(OC[C@@]56CCCN5C[C@H](F)C6)nc4c3F)c12` (stereo partly drawn) [Example 117, N-(1-(7-(8-ethynyl-7-fluoro-3-hydroxynaphthalen-1-yl)-8-fluoro-2-(((2R, 7aS)-2-fluorotetrahydro-1H-pyrrolizin-7a(5H)-yl)methoxy)quinazolin-4-yl)pyrrolidin-3-yl)methanesulfonamide], with less than 5.60.
Same read-out and setting: in the case of `C#Cc1c(F)ccc2cc(O)cc(-c3ccc4c(N5C[C@H]6CC[C@@H](C5)C6(F)F)nc(OC[C@@]56CCCN5C[C@H](F)C6)nc4c3F)c12` [Example 119, 4-(4-((1R,5S)-8,8-difluoro-3-azabicyclo [3.2.1]octan-3-yl)-8-fluoro-2-(((2R,7aS)-2-fluorotetrahydro-1H-pyrrolizin-7a(5H)-yl)methoxy)quinazolin-7-yl)-5-ethynyl-6-fluoronaphthalen-2-ol] it was less than 5.60.
